We go through seven compounds from patent US11161856B2 (H. Lundbeck A/S, priority 2017, dated 2021).

Common to all, as to type: biochemical
The target in experiment [1] is T1, ABHD6 (Mus musculus, UniProt Q8R2Y0).
T1 construct: Brain; from tissue; host or cells: mouse brain proteome
T1 sequence (Q8R2Y0 1-336): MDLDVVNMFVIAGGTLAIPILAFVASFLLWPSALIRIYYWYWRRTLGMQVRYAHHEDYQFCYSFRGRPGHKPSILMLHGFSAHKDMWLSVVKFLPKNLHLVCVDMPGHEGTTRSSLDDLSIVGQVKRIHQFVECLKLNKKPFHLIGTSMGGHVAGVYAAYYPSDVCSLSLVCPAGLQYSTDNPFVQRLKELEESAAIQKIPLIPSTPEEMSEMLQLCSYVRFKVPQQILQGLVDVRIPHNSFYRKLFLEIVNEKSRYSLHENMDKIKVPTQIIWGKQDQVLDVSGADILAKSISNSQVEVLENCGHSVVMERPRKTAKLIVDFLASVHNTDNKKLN
The experiment in a line: In vitro competitive activity-based protein profiling, mouse brain proteome (ABHD6). The settings on record: mouse brain proteome; concentration not given (μM). The method, then:
[The source words this procedure for another target and reports this target under the same test.] In Vitro Competitive Activity-Based Protein Profiling.
Proteomes (human prefrontal cortex or cell membrane fractions) (50 μL, 1.0 mg/mL total protein concentration) were preincubated with varying concentrations of inhibitors at 37° C. After 30 min, FP-Rh or HT-01 (1.0 μL, 50 μM in DMSO) was added and the mixture was incubated for another 30 min at room temperature. Reactions were quenched with SDS loading buffer (15 μL-4×) and run on SDS-PAGE.

For experiment [2], the target named is T2, MGLL (Mus musculus, UniProt O35678).
T2 construct: Brain; from tissue; host or cells: mouse brain proteome
T2 sequence (O35678 1-303): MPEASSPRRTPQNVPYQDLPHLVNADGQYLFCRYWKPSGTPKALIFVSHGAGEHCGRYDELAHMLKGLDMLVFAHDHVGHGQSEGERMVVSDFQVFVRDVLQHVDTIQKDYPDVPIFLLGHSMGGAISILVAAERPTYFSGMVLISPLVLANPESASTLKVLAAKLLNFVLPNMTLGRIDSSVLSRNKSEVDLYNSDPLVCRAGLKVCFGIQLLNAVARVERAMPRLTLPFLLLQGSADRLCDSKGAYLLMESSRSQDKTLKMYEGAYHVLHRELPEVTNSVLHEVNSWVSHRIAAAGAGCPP
The experiment is described as follows: In vitro competitive activity-based protein profiling, mouse brain proteome (MGLL). The settings on record: concentration not given (μM).

The target in experiment [3] is T3, MAGL (Homo sapiens, UniProt Q99685).
T3 construct: Proteomes (human prefrontal cortex or cell membrane fractions); from tissue
T3 sequence (Q99685 1-303): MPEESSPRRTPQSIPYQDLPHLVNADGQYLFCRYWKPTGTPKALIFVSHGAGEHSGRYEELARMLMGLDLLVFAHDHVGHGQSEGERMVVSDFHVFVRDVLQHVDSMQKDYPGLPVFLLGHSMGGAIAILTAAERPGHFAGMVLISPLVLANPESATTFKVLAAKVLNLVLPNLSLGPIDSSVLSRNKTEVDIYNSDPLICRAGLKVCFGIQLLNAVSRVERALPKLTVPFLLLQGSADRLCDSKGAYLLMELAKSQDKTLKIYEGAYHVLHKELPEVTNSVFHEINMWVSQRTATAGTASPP
The experiment is described as follows: In vitro competitive activity-based protein profiling (FP-Rh or HT-01 probe, gel-based). The settings on record: for % Inh MGLL PFC (Human, μM): prefrontal cortex (PFC) proteome. In short, it runs like this: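 Human prefrontal cortex or cell membrane proteomes (1.0 mg/mL total protein) were preincubated with varying inhibitor concentrations for 30 min at 37° C. FP-Rh or HT-01 probe (50 μM DMSO stock) was then added for 30 min at room temperature, and samples were quenched in SDS loading buffer and resolved by SDS-PAGE.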

Molecules are shown by their SMILES.

Take `CN(Cc1ccc(C(F)(F)F)cc1N1CCC(N2CCC[C@H]2C(=O)O)CC1)C1(C)CCN(C(=O)OC(C(F)(F)F)C(F)(F)F)CC1` [Example 161, (1-(2-(((1-(((1,1,1,3,3,3-Hexafluoropropan-2-yl)oxy)carbonyl)-4-methylpiperidin-4-yl)(methyl)ainino)methyl)-5-(trifluoromethyl)phenyl)piperidin-4-yl)proline]: in experiment [1], the “% Inh ABHD6 Brain (Mouse, μM)” value is listed as “### (### is ≥75%)”. In addition, in experiment [2], the “% Inh MGLL Brain (Mouse, μM)” value was “### (### is ≥75%)”. Moreover, the “% Inh MGLL PC3 (Human, μM)” value in experiment [3] (PC3 cell proteome, concentration not given (μM)) was “### (### is ≥75%)”. Besides, in experiment [3] (PC3 cell proteome, read-out: IC50 MGLL PC3 (Human)), the IC50 – broadly, the concentration that inhibits the measured activity by half – was under 100 nM.

Turning to `O=C(O)C1CCN(c2cc(F)cc(CN3CC4(CCN(C(=O)OC(C(F)(F)F)C(F)(F)F)CC4)C3)c2)CC1` [Example 117, 1-(3-Fluoro-5-((7-(((1,1,1,3,3,3-hexafluoropropan-2-yl)oxy)carbonyl)-2,7-diazaspiro[3.5]nonan-2-yl)methyl)phenyl)piperidine-4-carboxylic acid], in experiment [1], the “% Inh ABHD6 Brain (Mouse, μM)” value was “## (## is between 25 and 75%)”. Further, in experiment [2], the “% Inh MGLL Brain (Mouse, μM)” value is reported as “### (### is ≥75%)”. In addition, the “% Inh MGLL PFC (Human, μM)” value in experiment [3] (concentration not given (μM)) is recorded as “### (### is ≥75%)”.

With `CC1(C(=O)O)CN(c2cc(C(F)(F)F)ccc2CN2CC3(CCN(C(=O)OC(C(F)(F)F)C(F)(F)F)CC3)C2)CCO1` (stereo not shown) [Example 130, 4-(2-((7-(((1,1,1,3,3,3-Hexafluoropropan-2-yl)oxy)carbonyl)-2,7-diazaspiro[3.5]nonan-2-yl)methyl)-5-(trifluoromethyl)phenyl)-2-methylmorpholine-2-carboxylic acid], the “% Inh ABHD6 Brain (Mouse, μM)” value in experiment [1] is on record as “# (# is ≤25%)”. For the same compound, the “% Inh MGLL Brain (Mouse, μM)” value in experiment [2] was “### (### is ≥75%)”. The “% Inh MGLL PFC (Human, μM)” value in experiment [3] (concentration not given (μM)) is “### (### is ≥75%)”.

`O=C(O)C1CCN(c2ccc(CN3CCC4(CC3)CCN(C(=O)OC(C(F)(F)F)C(F)(F)F)C4)cc2C(F)(F)F)CC1` [Example 219, l-(4-((2-(((1,1,1,3,3,3-Hexafluoropropan-2-yl)oxy)carbonyl)-2,8-diazaspiro[4.5]decan-8-yl)methyl)-2-(trifluoromethyl)phenyl) piperidine-4-carboxylic acid]: the “% Inh ABHD6 Brain (Mouse, μM)” value in experiment [1] is given as “### (### is ≥75%)”. The “% Inh MGLL Brain (Mouse, μM)” value in experiment [2] is “## (## is between 25 and 75%)”. For the same compound, the “% Inh MGLL PFC (Human, μM)” value in experiment [3] (concentration not given (μM)) is listed as “### (### is ≥75%)”.

For `O=C(O)CN1CCC2(CC1)CN(c1cc(C(F)(F)F)ccc1CN1CCCC13CCN(C(=O)OC(C(F)(F)F)C(F)(F)F)CC3)C2` [Example 156, 2-(2-(2-((8-(((1,1,1,3,3,3-Hexafluoropropan-2-yl)oxy)carbonyl)-1,8-diazaspiro[4.5]decan-1-yl)methyl)-5-(trifluoromethyl)phenyl)-2,7-diazaspiro[3.5]nonan-7-yl)acetic acid], the “% Inh ABHD6 Brain (Mouse, μM)” value in experiment [1] is reported as “# (# is ≤25%)”. Also, the “% Inh MGLL Brain (Mouse, μM)” value in experiment [2] is listed as “### (### is ≥75%)”. The “% Inh MGLL PFC (Human, μM)” value in experiment [3] (concentration not given (μM)) is “### (### is ≥75%)”.

As to `O=C(O)C1CN(c2cc(CN3CC4(CCN(C(=O)OC(C(F)(F)F)C(F)(F)F)CC4)C3)cc(C(F)(F)F)c2)CCO1` (stereo not shown) [Example 100, 4-(3-((7-(((1,1,1,3,3,3-Hexafluoropropan-2-yl)oxy)carbonyl)-2,7-diazaspiro[3,5]nonan-2-yl)methyl)-5-(trifluoromethyl)phenyl)morph-oline-2-carboxylic acid], the “% Inh ABHD6 Brain (Mouse, μM)” value in experiment [1] is on record as “### (### is ≥75%)”. Moreover, the “% Inh MGLL Brain (Mouse, μM)” value in experiment [2] is on record as “### (### is ≥75%)”. The “% Inh MGLL PFC (Human, μM)” value in experiment [3] (concentration not given (μM)) was “### (### is ≥75%)”.

With `O=C(O)c1ccc(CN2CC3(CCN(C(=O)OC(C(F)(F)F)C(F)(F)F)CC3)C2)cc1C(F)(F)F` [Example 131, 4-((7-(((1,1,1,3,3,3-Hexafluoropropan-2-yl)oxy)carbonyl)-2,7-diazaspiro[3,5]nonan-2-yl)methyl)-2-(trifluoromethyl)benzoic acid], the “% Inh ABHD6 Brain (Mouse, μM)” value in experiment [1] was “### (### is ≥75%)”. Also, in experiment [2], the “% Inh MGLL Brain (Mouse, μM)” value was “## (## is between 25 and 75%)”. Besides, the “% Inh MGLL PFC (Human, μM)” value in experiment [3] (concentration not given (μM)) is recorded as “### (### is ≥75%)”.
